Assay results reported in patent US20250263426A1, “PDE4B INHIBITOR AND USE THEREOF” (Xizang Haisco Pharmaceutical Co., Ltd., priority 2022, published 2025).
Like-named read-outs stand apart in the source and are kept apart here.

Columns and labels:
PDE4D2 = PDE4D2 (Homo sapiens (Human), UniProt Q08499); experiment: Effect of compounds on PDE4D2 activity (fluorescence polarization kit); type: biochemical
Experimental: FP was usually represented by mP value.
[formula] • I∥ (S520): fluorescence intensity in parallel direction • I⊥ (P520): fluorescence intensity in perpendicular direction • G: G factor=1
[formula] • mP(sample): mP of the test compound in a reaction well • mP(negative control): mP in the negative control well • mP(positive control): mP in the positive control well
According to the calculated inhibition rate at each concentration, the IC50 value of each compound was calculated by GraphPad Prism 8 software.

PDE4B2 = PDE4B2 (Homo sapiens (Human), UniProt Q07343); experiment: Effect of compounds on PDE4B2 activity (fluorescence polarization kit)
PDE4B2, sequence (Q07343 other isoform, or with tags, fused parts or gaps): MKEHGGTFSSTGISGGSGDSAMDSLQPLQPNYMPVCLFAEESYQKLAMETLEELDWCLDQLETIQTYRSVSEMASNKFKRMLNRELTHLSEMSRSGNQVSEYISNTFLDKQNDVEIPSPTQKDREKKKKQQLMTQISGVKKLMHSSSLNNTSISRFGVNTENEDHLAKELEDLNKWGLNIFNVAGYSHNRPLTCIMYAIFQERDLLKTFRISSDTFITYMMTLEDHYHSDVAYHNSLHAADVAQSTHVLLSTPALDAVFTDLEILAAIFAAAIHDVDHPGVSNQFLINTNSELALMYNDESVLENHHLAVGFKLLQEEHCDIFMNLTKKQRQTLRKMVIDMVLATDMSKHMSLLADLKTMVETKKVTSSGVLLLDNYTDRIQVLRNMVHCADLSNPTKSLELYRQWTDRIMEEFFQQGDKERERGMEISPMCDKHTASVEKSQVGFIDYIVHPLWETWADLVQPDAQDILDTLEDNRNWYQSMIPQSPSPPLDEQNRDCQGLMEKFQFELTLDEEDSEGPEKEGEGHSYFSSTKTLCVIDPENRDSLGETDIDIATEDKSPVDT
Text: [formula] • I∥ (S535): fluorescence intensity in parallel direction • I⊥ (P535): fluorescence intensity in perpendicular direction • G: G factor=1

[1] = tested on: human peripheral blood mononuclear cells (TNF-α release); experiment: Inhibition of LPS-induced TNF-α release from human peripheral blood mononuclear cells in vitro; type: cell-based; conditions: 4 h; for Emax: read-out: Max inhibition (%)
Experimental: 5. Detection of Inhibitory Activity of Compounds on the Release of Tumor Necrosis Factor-α (TNF-α) from Human Peripheral Blood Mononuclear Cells Induced by Lipopolysaccharide (LPS) In Vitro
The concentration of hPBMC cells was adjusted to 0.25×10^6 cells/mL with RPMI1640 medium and inoculated into a 96-well plate in an amount of 50000 cells per well. […] Incubation was carried out for 4 h in an incubator at 37° C. and 5% CO2. The cell supernatant was collected, and the content of TNF-α in the supernatant sample was detected by human TNF-α Elisa quantitative test kit (Sino Biological, Cat #KIT10602). The IC50 value was calculated using GraphPad Prism software.

[2] = Homo sapiens, PBMC, read-out: Re IC50
[3] = Homo sapiens, PBMC, hPBMC, 100 ng/mL LPS
[4] = relative IC50, hPBMC, 100 ng/mL LPS, read-out: Re IC50

PDE4D2, sequence (Q08499 303-809, change not shown): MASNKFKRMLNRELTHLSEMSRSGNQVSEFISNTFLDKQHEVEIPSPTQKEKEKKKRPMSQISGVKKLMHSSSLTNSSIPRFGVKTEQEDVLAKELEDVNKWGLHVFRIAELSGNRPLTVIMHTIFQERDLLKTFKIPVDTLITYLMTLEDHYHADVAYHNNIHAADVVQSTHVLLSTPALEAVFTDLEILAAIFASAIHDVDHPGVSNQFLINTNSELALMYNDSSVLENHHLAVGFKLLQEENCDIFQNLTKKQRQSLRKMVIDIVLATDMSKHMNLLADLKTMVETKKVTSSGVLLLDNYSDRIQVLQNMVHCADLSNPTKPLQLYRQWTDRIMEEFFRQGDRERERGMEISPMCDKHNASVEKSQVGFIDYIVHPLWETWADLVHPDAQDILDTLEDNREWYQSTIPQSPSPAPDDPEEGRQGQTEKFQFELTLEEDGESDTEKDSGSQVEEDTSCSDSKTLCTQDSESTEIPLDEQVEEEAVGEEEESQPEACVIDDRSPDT

Row | Structure (SMILES) | IC50 (PDE4D2) [nM] | IC50 (PDE4B2) [nM] | IC50 (PDE4B2; read-out: PDE4B2 IC50) [nM] | also measured
1 | C#Cc1cnc(C2=CCN(c3nc4c(c(NC5(COC(N)=O)CCC5)n3)[S@+]([O-])CC4)CC2)nc1 [Compound 35] | < 10 | < 10 |  | IC50 [1, 2]: < 10 nM; Emax [1, 3]: 85.1%
2 | C#Cc1cnc(C2=CCN(c3nc4c(c(Nc5cccc(F)c5)n3)[S@+]([O-])CC4)CC2)nc1 [Compound 36-1] | < 10 |  | < 10 | Max inhibition (%) ([1]; hPBMC, 100 ng/mL LPS): 73.52%; IC50 [1, 4]: < 10 nM
3 | C#Cc1cnc(C2=CCN(c3nc4c(c(Nc5cccc(F)c5)n3)[S@@+]([O-])CC4)CC2)nc1 [Compound 36-2] | 10 to 50 |  | 10 to 50 | 
4 | C#Cc1cnc(C2=CCN(c3nc4c(c(NC5(CN/C(C)=N/C#N)CCC5)n3)[S@+]([O-])CC4)CC2)nc1 [Compound 39] | < 10 | < 10 |  | IC50 [1, 2]: < 10 nM; Emax [1, 3]: 71.1%
5 | C#Cc1ccc(N2CCN(c3nc4c(c(NC5(CO)CCC5)n3)[S+]([O-])CCC4)CC2)cc1 (centres unmarked) [Compound 41] | 10 to 50 | < 10 |  | Emax ([1]; Homo sapiens, PBMC): 69.8%; IC50 ([1]; Homo sapiens, PBMC, read-out: Re IC50 (nM)): 10 to 50 nM
6 | NC(=O)OCC1(Nc2nc(N3C[C@H]4CC(c5ccc(Cl)cc5)=C[C@H]4C3)nc3c2[S@+]([O-])CC3)CCC1 [Compound 44] | 10 to 50 |  | < 10 | Max inhibition (%) ([1]; hPBMC, 100 ng/mL LPS): 77.27%; IC50 [1, 4]: 10 to 50 nM
7 | C#Cc1cnc(N2CCN(c3nc4c(c(NC5(COC(N)=O)CCC5)n3)[S@+]([O-])CC4)CC2)nc1 [Compound 57] | 10 to 50 | < 10 |  | 
8 | NC(=O)OCC1(Nc2nc(N3C[C@H]4CN(c5ccc6c(c5)CC6)C[C@H]4C3)nc3c2[S@+]([O-])CC3)CCC1 [Compound 58] | 10 to 50 | < 10 |  | 
9 | [O-][S@+]1CCc2nc(N3CC4CN(c5ccc6c(c5)CC6)CC4C3)nc(Nc3cccc(S(F)(F)(F)(F)F)c3)c21 (some centres unmarked) [Compound 75-1] | 10 to 50 |  | 10 to 50 | 
10 | C#Cc1ccc(C2=CCN(c3nc4c(c(NC5([C@@H](C)O)CCC5)n3)[S@+]([O-])CC4)CC2)nc1 [Compound 95-1] | < 10 |  | < 10 | 
11 | C#Cc1ccc(C2=CCN(c3nc4c(c(NC5([C@H](C)O)CCC5)n3)[S@@+]([O-])CC4)CC2)nc1 [Compound 95-4] | < 10 |  | < 10 | 
12 | C#Cc1cnc(C2=CCN(c3nc4c(c(NC5([C@@H](C)O)CCC5)n3)[S@@+]([O-])CC4)CC2)nc1 [Compound 96-3] | 10 to 50 |  | < 10 | 
13 | CC(C)(CO)Nc1nc(N2CC=C(c3ccc4c(c3)C[Si](C)(C)C4)CC2)nc2c1[S@+]([O-])CC2 [Compound 107] | 10 to 50 |  | 10 to 50 | 
14 | CC(C)(COC(N)=O)Nc1nc(N2CC=C(c3ccc4c(c3)C[Si](C)(C)C4)CC2)nc2c1[S@+]([O-])CC2 [Compound 108] | 10 to 50 | 10 to 50 |  | 
15 | CN1C[C@@H](Nc2nc(N3C[C@H]4CN(c5ccc6c(c5)CC6)C[C@H]4C3)nc3c2[S@+]([O-])CC3)CCC1=O [Compound 109-2] | 50 to 100 |  | 10 to 50 | 
16 | CC#Cc1cnc2c(c1)OC[C@H]1CN(c3nc4c(c(NC(C)(C)COC(N)=O)n3)[S@+]([O-])CC4)CCN21 [Compound 112-2] | 50 to 100 |  | 10 to 50 | 
17 | CC(C)(COC(N)=O)Nc1nc(N2CCN3c4ncc(C5CC5)cc4OC[C@H]3C2)nc2c1[S@+]([O-])CC2 [Compound 113-2] | 50 to 100 |  | 10 to 50 | 
18 | CC(C)(COC(N)=O)Nc1nc(N2CC=C(c3ncc(C4CC4)cn3)C2)nc2c1[S@+]([O-])CC2 [Compound 116] | 50 to 100 | 10 to 50 |  | 
19 | CC(C)(COC(N)=O)Nc1nc(N2CC=C(c3ncccn3)CC2)nc2c1[S@+]([O-])CC2 [Compound 118] | 10 to 50 | 10 to 50 |  | 
20 | Cc1cnc(C2=CCN(c3nc4c(c(NC(C)(C)COC(N)=O)n3)[S@+]([O-])CC4)CC2)nc1 [Compound 122] | 10 to 50 | 10 to 50 |  | 
21 | COc1cnc(C2=CCN(c3nc4c(c(NC(C)(C)COC(N)=O)n3)[S@+]([O-])CC4)CC2)nc1 [Compound 124] | 10 to 50 | 10 to 50 |  | 

Row | Structure (SMILES) | IC50 (PDE4D2) [nM] | IC50 (PDE4B2) [nM] | IC50 (PDE4B2; read-out: PDE4B2 IC50) [nM] | also measured
22 | CC(C)(COC(N)=O)Nc1nc(N2CC=C(c3ncc4c(n3)CCC4)CC2)nc2c1[S@+]([O-])CC2 [Compound 125] | 10 to 50 | 10 to 50 |  | 
23 | CC(C)(COC(N)=O)Nc1nc(N2CC=C(c3ncc(C4CCC4)cn3)CC2)nc2c1[S@+]([O-])CC2 [Compound 126] | 10 to 50 | < 10 |  | 
24 | CCOc1cnc(C2=CCN(c3nc4c(c(NC(C)(C)COC(N)=O)n3)[S@+]([O-])CC4)CC2)nc1 [Compound 128] | < 10 | < 10 |  | 
25 | CC(C)c1cnc(C2=CCN(c3nc4c(c(NC(C)(C)COC(N)=O)n3)[S@+]([O-])CC4)CC2)nc1 [Compound 129] | 10 to 50 | < 10 |  | 
26 | CC(C)(COC(N)=O)Nc1nc(N2CC=C(c3ncc(C(F)F)cn3)CC2)nc2c1[S@+]([O-])CC2 [Compound 130] | 10 to 50 | 10 to 50 |  | 
27 | CC(C)(COC(N)=O)Nc1nc(N2CC=C(c3ncc4c(n3)CC4)CC2)nc2c1[S@+]([O-])CC2 [Compound 132] | 10 to 50 | 10 to 50 |  | 
28 | CC(C)(CC#N)Nc1nc(N2CC=C(c3ncc(C4CC4)cn3)CC2)nc2c1[S@+]([O-])CC2 [Compound 134] | < 10 |  | < 10 | 
29 | N#CCC1(Nc2nc(N3CC=C(c4ncc(C5CC5)cn4)CC3)nc3c2[S@+]([O-])CC3)CCC1 [Compound 135] | < 10 | < 10 |  | 
30 | CC(C)(COC(N)=O)Nc1nc(N2CC=C(c3ncc4occc4n3)CC2)nc2c1[S@+]([O-])CC2 [Compound 136] | < 10 | < 10 |  | 
31 | CC(C)(COC(N)=O)Nc1nc(N2CCC=C(c3ncc(C4CC4)cn3)CC2)nc2c1[S@+]([O-])CC2 [Compound 137] | 10 to 50 | 10 to 50 |  | 
32 | CN(C)c1cnc(C2=CCN(c3nc4c(c(NC(C)(C)COC(N)=O)n3)[S@+]([O-])CC4)CC2)nc1 [Compound 138] | 10 to 50 | 10 to 50 |  | 
33 | COC(=O)NCC(C)(C)Nc1nc(N2C[C@H]3CC(c4ncc5c(n4)CC5)=C[C@H]3C2)nc2c1[S@+]([O-])CC2 [Compound 139-2] | 10 to 50 |  | 10 to 50 | 
34 | COC(=O)NCC(C)(C)Nc1nc(N2CCN3c4ncc(C)cc4OC[C@H]3C2)nc2c1[S@+]([O-])CC2 [Compound 141-1] | 10 to 50 |  | 10 to 50 | 
35 | COC(=O)NCC(C)(C)Nc1nc(N2CCN3c4ncc(C)cc4OC[C@@H]3C2)nc2c1[S@+]([O-])CC2 [Compound 141-2] | 50 to 100 |  | 10 to 50 | 
36 | Cc1cnc2c(c1)OC[C@@H]1CN(c3nc4c(c(NC(C)(C)COC(N)=O)n3)[S@+]([O-])CC4)CCN21 [Compound 142-1] | 10 to 50 |  | < 10 | 
37 | Cc1cnc2c(c1)OC[C@H]1CN(c3nc4c(c(NC(C)(C)COC(N)=O)n3)[S@+]([O-])CC4)CCN21 [Compound 142-2] | 10 to 50 |  | 10 to 50 | 
38 | CCOc1cnc2c(c1)OC[C@@H]1CN(c3nc4c(c(NC(C)(C)COC(N)=O)n3)[S+]([O-])CC4)CCN21 (some centres unmarked) [Compound 146-1] | < 10 |  | 10 to 50 | 
39 | CCOc1cnc2c(c1)OC[C@H]1CN(c3nc4c(c(NC(C)(C)COC(N)=O)n3)[S+]([O-])CC4)CCN21 (some centres unmarked) [Compound 146-2] | 10 to 50 |  | 10 to 50 | 
40 | CCOc1cnc2c(c1)OC[C@@H]1CN(c3nc4c(c(NC(C)(C)CNC(=O)OC)n3)[S@+]([O-])CC4)CCN21 [Compound 147-1] | 50 to 100 |  | 10 to 50 | 
41 | CCOc1cnc2c(c1)OC[C@H]1CN(c3nc4c(c(NC(C)(C)CNC(=O)OC)n3)[S@+]([O-])CC4)CCN21 [Compound 147-2] | 50 to 100 |  | 10 to 50 | 
